Results as given in US20230381139A1, “METHODS OF TREATING AND/OR PREVENTING ALZHEIMER’S DISEASE WITH R-CARVEDILOL” (priority 2020, published 2023).

How the values were obtained:
Format in all cases: in vivo, mouse
[1] = tested on: subiculum pyramidal neurons of 5×FAD+/− mice; assay: Nissl staining, neuronal cell loss in 5×FAD+/− mice; details: 6-7 months old 5×FAD+/− mice, pre-treatment 3.2 mg/kg/day for 1 month; vs DMSO
Method: Adult genetically engineered mice, 5×FAD^+/− (Oakley et al., 2006), RyR2-E4872Q^+/− (EQ^+/−) (Chen et al., 2014), 5×FAD^+/−/RyR2-E4872Q^+/− (5×FAD^+/−/EQ^+/−), and wildtype (WT) littermates of both sexes were used. R-carvedilol (R-CV) (at doses of 0.8, 1.6 or 3.2 mg/kg/day), racemic carvedilol (3.2 mg/kg/day), and vehicle control (DMSO) were delivered to 5×FAD^+/− mice in drinking water for one month, starting at different ages before (2-3 months old) or after (3-4 months old) the occurrence of AD pathologies (Oakley et al., 2006). To assess the effects of genetically and pharmacologically limiting RyR2 open time on the prevention and rescue of AD deficits in different stages (early, moderate, and late) of AD progression, animals at different ages (from 2-15 months) were used. As reported (Oakley et al., 2006), there was an age-dependence of AD progression in the 5×FAD^+/− mice. No sex-dependent differences in AD progression in these mice was observed. For 2-photon Ca^2+ imaging experiments, 5×FAD, RyR2 WT, and RyR2 mutant mice were cross-bred with the heterozygous Thy1-GCaMP6f transgenic mice (Chen et al., 2012; Chen et al., 2013) (GP5.17, JAX 025393) to express the GCaMP6f Ca^2+ sensing probe (driven by the Thy1 promotor) in hippocampal neurons in each of the genotypes used. […]

Aβ plaques = Aβ plaques (immunohistochemical staining) in 3×TG+/− mice; details: 12-15 months old 3×TG+/− mice, 3.2 mg/kg/day for one month; vs DMSO
Method: (§1) Genetically engineered mice of 12-15 months old, 3×TG+/− (Oddo et al., 2003), RyR2-E4872Q+/− (EQ+/−)(Chen et al., 2014), 3×TG+/−/RyR2-E48720+/− (3×TG+/−/EQ+/−), and WT littermates of both sexes were used. Sex differences, which may produce biological variables, were not investigated in this study. R-carvedilol (R-CV) (3.2 mg/kg/day) and vehicle control (DMSO) were delivered to 3×TG+/− mice in drinking water for one month. As shown previously, only heterozygous RyR2-E4872Q+/− mutant mice were produced as homozygous E4872Q+/+mutation is embryonic lethal (Chen et al., 2014). Functional RyR2s are tetrameric channels formed by 4 RyR2 monomers. The heterozygous E4872Q+/− mutant mice (harboring one WT allele and one E4872Q mutant allele) will produce a mixture of homo- and hetero-tetrameric channels that contain the WT, E48720 mutant, or both WT/E4872Q mutant monomers. Thus, the RyR2-E4872Q mutation can exert its negative impact not only on the function of the E4872Q homo-tetramers, but also on the function of the WT monomer in the WT/E4872Q hetero-tetrameric channels.
Mice of different ages and genotypes were anesthetized and transcardially perfused with 10% neutral buffered formalin (NBF). Whole brains were removed and post-fixed in NBF for at least 24 h. The fixed brains were then embedded in paraffin after dehydration and diaphanization. […]

Aβ = Aβ accumulation (immunohistochemical staining and immunoblotting) in 5×FAD+/− mice; details: 5×FAD+/− mice 3-4, 4-5 and 6-7 months old after 1-month treatment with 3.2 mg/kg/day; vs DMSO
Method: Adult genetically engineered mice, 5×FAD^+/− (Oakley et al., 2006), RyR2-E4872Q^+/− (EQ^+/−) (Chen et al., 2014), 5×FAD^+/−/RyR2-E4872Q^+/− (5×FAD^+/−/EQ^+/−), and wildtype (WT) littermates of both sexes were used. R-carvedilol (R-CV) (at doses of 0.8, 1.6 or 3.2 mg/kg/day), racemic carvedilol (3.2 mg/kg/day), and vehicle control (DMSO) were delivered to 5×FAD^+/− mice in drinking water for one month, starting at different ages before (2-3 months old) or after (3-4 months old) the occurrence of AD pathologies (Oakley et al., 2006). To assess the effects of genetically and pharmacologically limiting RyR2 open time on the prevention and rescue of AD deficits in different stages (early, moderate, and late) of AD progression, animals at different ages (from 2-15 months) were used. As reported (Oakley et al., 2006), there was an age-dependence of AD progression in the 5×FAD^+/− mice. No sex-dependent differences in AD progression in these mice was observed. For 2-photon Ca^2+ imaging experiments, 5×FAD, RyR2 WT, and RyR2 mutant mice were cross-bred with the heterozygous Thy1-GCaMP6f transgenic mice (Chen et al., 2012; Chen et al., 2013) (GP5.17, JAX 025393) to express the GCaMP6f Ca^2+ sensing probe (driven by the Thy1 promotor) in hippocampal neurons in each of the genotypes used.
Immunoblotting analysis was carried out using the method described previously (Rosen et al., 2010). […]

[2] = tested on: hippocampal CA1 and subiculum neurons of 3×TG+/− mice; assay: Nissl staining, neuron density in 3×TG+/− mice; details: 12-15 months old 3×TG+/− mice, 3.2 mg/kg/day for one month; vs DMSO
Method: as §1
For the Nissl staining, paraffin-embedded brain tissue sections (5 μm) were immersed in xylene (5 min, 2 times), rehydrated in absolute ethanol (5 min, 2 times) followed by 95%, 75% and 50% solutions of ethanol in water (5 min each), then washed in distilled water for 2 times, 5 min each. […]

With `COc1ccccc1OCCNC[C@@H](O)COc1cccc2[nH]c3ccccc3c12` [R-carvedilol, R-(+)-carvedilol] the “subiculum neuronal cell loss” value [1] was “protected against”, the “area of Aβ plaques in the hippocampal region” value (Aβ plaques) was “no significant difference” and the “number of Aβ plaques in the hippocampal region” value (Aβ plaques) was “no significant difference”. The “Aβ accumulation (plaques, total Aβ and Aβ (1-42) levels)” value (Aβ) was “without affecting”, the “density of neurons in the hippocampal CA1 region” value [2] was “no significant difference” and the “density of neurons in the subiculum area” value [2] was “significantly higher”.
